Experimental data reported in BindingDB's records for doi:10.7270/Q2319T8T (The Scripps Research Institute Molecular Screening Center, 2007).

Target: Steroidogenic factor 1 (Homo sapiens, UniProt Q13285)
Experiment: blockers of SF-1 LBD reporter transcription – cell-based, CHO-K1, Gal4-SF-1 LBD, luciferase luminescence, dose response (AID 600)
[1] = inactive by the depositor's call

Sequence of Steroidogenic factor 1 (Q13285 whole entry, the tested form may be a part): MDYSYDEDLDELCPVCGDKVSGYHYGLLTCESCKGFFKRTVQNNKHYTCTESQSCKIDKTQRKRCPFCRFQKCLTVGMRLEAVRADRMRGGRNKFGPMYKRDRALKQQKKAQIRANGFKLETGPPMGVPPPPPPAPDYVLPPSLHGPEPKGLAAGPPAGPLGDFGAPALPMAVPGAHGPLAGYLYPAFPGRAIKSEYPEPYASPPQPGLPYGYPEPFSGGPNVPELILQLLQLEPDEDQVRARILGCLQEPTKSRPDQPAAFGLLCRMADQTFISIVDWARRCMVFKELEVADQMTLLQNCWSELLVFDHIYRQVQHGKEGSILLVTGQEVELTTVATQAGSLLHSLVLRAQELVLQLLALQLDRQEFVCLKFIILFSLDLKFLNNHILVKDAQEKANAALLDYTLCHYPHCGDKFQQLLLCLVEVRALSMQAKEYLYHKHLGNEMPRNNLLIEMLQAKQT

| Compound | IC50 [1] | IC50 |
| --- | --- | --- |
| O=C(CSC1=NCCS1)Nc1ccnc2ccccc12 [2-(4,5-dihydro-1,3-thiazol-2-ylsulfanyl)-N-quinolin-4-yl-ethanamide] | 15.1 µM |  |
| CCOc1ccc(-c2nnc(-c3ccco3)o2)cc1 [2-(2-furyl)-5-p-phenetyl-1,3,4-oxadiazole] |  | 5.29 µM |
| COc1ccc(OCc2cccc(C(=O)O)c2)cc1 [3-[(4-methoxyphenoxy)methyl]benzoic acid] |  | 0.421 µM |
| CC1CCCCN1S(=O)(=O)c1ccc(C(=O)Nc2nnc(-c3cccs3)o2)cc1 (stereo unspecified) [4-(2-methylpiperidin-1-yl)sulfonyl-N-(5-thiophen-2-yl-1,3,4-oxadiazol-2-yl)benzamide] | 17.7 µM |  |
| CCOc1ccccc1C(=O)N1CCN(c2cccc(Cl)c2)CC1 [1-(3-chlorophenyl)-4-(2-ethoxybenzoyl)piperazine] |  | > 1.22 µM |
| COc1cc(CN=O)ccc1OCc1ccc(C(=O)O)cc1 [4-[[4-(hydroximinomethyl)-2-methoxy-phenoxy]methyl]benzoic acid] |  | 1.16 µM |
| COc1ccc(/N=c2\scc(-c3ccc(S(=O)(=O)N4CCOCC4)cc3)n2CCCO)cc1 [3-[(2Z)-2-[(4-methoxyphenyl)imino]-4-[4-(morpholin-4-ylsulfonyl)phenyl]-1,3-thiazol-3(2H)-yl]propan-1-ol] |  | 21.9 µM |
| CCOc1ccc(OCc2cccc(C(=O)N3CCOCC3)c2)cc1 [4-{3-[(4-ethoxyphenoxy)methyl]benzoyl}morpholine] |  | > 1.22 µM |
| c1ccc2nc(-c3nc4ccccc4o3)ccc2c1 [2-(1,3-benzoxazol-2-yl)quinoline] |  | 6.81 µM |
| CCc1c(C)nc2ncnn2c1NCCc1ccc(OC)cc1 [(6-Ethyl-5-methyl-[1,2,4]triazolo[1,5-a]pyrimidin-7-yl)-[2-(4-methoxy-phenyl)-ethyl]-amine] |  | > 11 µM |
| CCNc1nc2c(c(=O)n(C)c(=O)n2C)n1Cc1ccc(Cl)cc1 [7-(4-chlorobenzyl)-8-(ethylamino)-1,3-dimethyl-xanthine] |  | > 3.67 µM |
| c1ccc(-c2noc(-c3ccc4ccccc4c3)n2)nc1 [2-[5-(2-naphthyl)-1,2,4-oxadiazol-3-yl]pyridine] |  | 0.7 µM |
| CN=c1scc(C)n1N=Cc1ccc(O)cc1O [(4E)-4-[[(4-methyl-2-methylimino-1,3-thiazol-3-yl)amino]methylidene]-3-oxidanyl-cyclohexa-2,5-dien-1-one] |  | 15.2 µM |
| COc1cc2c(cc1NC(=O)CSc1nnnn1-c1ccccc1)oc1ccccc12 [MLS000082182] |  | 6.02 µM |
| COc1ccccc1-c1nnc2sc(-c3ccc(N(C)C)cc3)nn12 [4-[3-(2-methoxyphenyl)-[1,2,4]triazolo[3,4-b][1,3,4]thiadiazol-6-yl]-N,N-dimethyl-aniline] |  | 6.26 µM |
| Cc1ccsc1C(=O)OCC(=O)c1cc(C)n(CC2CCCO2)c1C (stereo unspecified) [3-methyl-2-thiophenecarboxylic acid [2-[2,5-dimethyl-1-(2-oxolanylmethyl)-3-pyrrolyl]-2-oxoethyl] ester] |  | > 0.0453 µM |
| CCCc1ccc(-c2ccc(F)c(N)c2)nc1 [2-fluoranyl-5-(5-propylpyridin-2-yl)aniline] |  | 7.35 µM |
| O=C(CC=Nc1ccccn1)c1ccc(Cl)cc1 [(Z)-1-(4-chlorophenyl)-3-(2-pyridinylamino)-2-propen-1-one] |  | 6.09 µM |
| Cc1ccc2c(c1)[nH]c1c(N3CCN(Cc4ccccc4)CC3)ncnc12 [SMR000044826] |  | > 3.67 µM |

| Compound | IC50 [1] | IC50 |
| --- | --- | --- |
| CCOC(=O)c1c(N)sc(C(=O)Nc2ccc3c(c2)OCO3)c1C [2-amino-5-(1,3-benzodioxol-5-ylcarbamoyl)-4-methyl-thiophene-3-carboxylic acid ethyl ester] |  | > 3.67 µM |
| O=C(Nc1ccc(N2CCOCC2)cc1)c1cnsn1 [MLS000063695] |  | 4.09 µM |
| COc1ccc(OC)c(NC(=O)CSc2nnnn2-c2ccc3c(c2)OCO3)c1 [2-(1-Benzo[1,3]dioxol-5-yl-1H-tetrazol-5-ylsulfanyl)-N-(2,5-dimethoxy-phenyl)-acetamide] |  | 2.35 µM |
| CCOc1ccc(OCc2cccc(C(=O)O)c2)cc1 [3-[(4-ethoxyphenoxy)methyl]benzoic acid] |  | 0.511 µM |
| Cn1c(SC2=CS(=O)(=O)c3ccccc32)nc2ccccc21 [2-(1,1-Dioxo-1H-1lambda*6*-benzo[b]thiophen-3-ylsulfanyl)-1-methyl-1H-benzoimidazole] |  | > 3.67 µM |
| COc1ccc(Nc2cc(C)nc(-n3nc(C)cc3C)n2)cc1 [2-(3,5-dimethyl-1-pyrazolyl)-N-(4-methoxyphenyl)-6-methyl-4-pyrimidinamine] | 12.5 µM |  |
| COC(=O)c1sc(NC(=O)c2ccc(OC)cc2OC)nc1C [2-[(2,4-dimethoxybenzoyl)amino]-4-methyl-thiazole-5-carboxylic acid methyl ester] |  | 2.86 µM |
| Clc1ccc(-n2ncc3c(N4CCCC4)ncnc32)cc1 [1-(4-chlorophenyl)-4-(1-pyrrolidinyl)pyrazolo[3,4-d]pyrimidine] |  | 3.17 µM |
| O=c1cc(N2CCN(c3cccc(Cl)c3)CC2)[nH]c(=O)n1C1CCCCC1 [MLS000094380] |  | 0.315 µM |
| O=C(CSc1nnc(COc2cccc3cccnc23)o1)N1CCc2ccccc21 [1-(2,3-Dihydro-indol-1-yl)-2-[5-(quinolin-8-yloxymethyl)-[1,3,4]oxadiazol-2-ylsulfanyl]-ethanone] |  | 4.4 µM |
| COc1cc(NS(=O)(=O)c2ccc(C)cc2C)cc(OC)c1OC [2,4-dimethyl-N-(3,4,5-trimethoxyphenyl)benzenesulfonamide] |  | > 11 µM |
| COc1nc(Nc2nc(O)c3ccccc3n2)nc2ccc(C)cc12 [SMR000108404] |  | 2.1 µM |
| COc1cccc(N2CCN(c3ncnc4c3[nH]c3ccc(F)cc34)CC2C)c1 (stereo unspecified) [8-fluoranyl-4-[4-(3-methoxyphenyl)-3-methyl-piperazin-1-yl]-5H-pyrimido[5,4-b]indole] |  | 2.07 µM |
| CCc1ccc(-c2nc(CSCC(=O)N3CCN(c4ncccn4)CC3)c(C)o2)cc1 [2-[[2-(4-ethylphenyl)-5-methyl-1,3-oxazol-4-yl]methylsulfanyl]-1-(4-pyrimidin-2-ylpiperazin-1-yl)ethanone] | 37.1 µM |  |
| COc1ccc(-c2nnc(NC(=O)c3ccc(S(=O)(=O)N4COCC4(C)C)cc3)o2)cc1 [4-(4,4-dimethyloxazolidin-3-yl)sulfonyl-N-[5-(4-methoxyphenyl)-1,3,4-oxadiazol-2-yl]benzamide] | 13.5 µM |  |
| CN1C2C=C3C(C#N)=C(N)C(C#N)(C#N)[C@@H](c4ccc(Cl)cc4)[C@@H]3C1CC2 (stereo partly specified) [SMR000038778] |  | 3.35 µM |
| COc1ccc(-c2cc3nc4n(c(=O)c3s2)CCC4)cc1 [2-(4-methoxyphenyl)-6,7-dihydropyrrolo[1,2-a]thieno[3,2-d]pyrimidin-9(5H)-one] |  | 4.32 µM |
| CCOc1ccc(-c2nc(CSCC(=O)NCc3ccco3)c(C)o2)cc1 [2-({[2-(4-ethoxyphenyl)-5-methyl-1,3-oxazol-4-yl]methyl}thio)-N-(2-furylmethyl)acetamide] |  | 0.189 µM |
| c1ccc2c(c1)CCN(c1nc3cc4c(cc3s1)OCCO4)C2 [2-(3,4-dihydro-1H-isoquinolin-2-yl)-6,7-dihydro-[1,4]dioxino[2,3-f][1,3]benzothiazole] |  | 5.34 µM |

| Compound | IC50 [1] | IC50 |
| --- | --- | --- |
| CCOC(=O)N1CCN(C(=O)C2CCN(c3ncnc4c3sc3cccc(F)c34)CC2)CC1 [4-[1-(9-fluorobenzothiopheno[3,2-d]pyrimidin-4-yl)isonipecotoyl]piperazine-1-carboxylic acid ethyl ester] |  | 7.93 µM |
| O=C(Oc1ccc(-c2nc(-c3ccccn3)no2)cc1)c1ccccc1 [4-[3-(2-pyridinyl)-1,2,4-oxadiazol-5-yl]phenyl benzoate] |  | 6.83 µM |
| COc1ccc(O)c(C(=O)CC(=O)c2ccc(F)cc2)c1 [1-(4-fluorophenyl)-3-(2-hydroxy-5-methoxy-phenyl)propane-1,3-dione] |  | > 11 µM |
| [O-][N+]1=c2ccc(Nc3ccccc3)cc2=NC12CCCCC2 [1-oxido-N-phenyl-5-spiro[benzimidazol-1-ium-2,1'-cyclohexane]amine] |  | 6.49 µM |
| c1ccc(-c2cccc(-c3ccccn3)n2)nc1 [2,6-bis(2-pyridinyl)pyridine] | 10.3 µM |  |
| O=C(Nc1nc(-c2ccc(Cl)s2)cs1)c1ccncc1 [MLS000098514] |  | > 99 µM |
| Cc1ccc(-c2nc(-c3ccccn3)no2)cc1 [5-(4-methylphenyl)-3-(2-pyridinyl)-1,2,4-oxadiazole] |  | 1.25 µM |
| COc1ccccc1-c1nnc(Nc2nc3c(OC)cccc3s2)o1 [(4-methoxy-1,3-benzothiazol-2-yl)-[5-(2-methoxyphenyl)-1,3,4-oxadiazol-2-yl]amine] |  | 6.52 µM |
| c1ccc(-c2ccc(-c3ccccn3)nn2)nc1 [3,6-bis(2-pyridinyl)pyridazine] |  | > 11 µM |
| COCCn1c(C)cc(C(=O)COC(=O)c2[nH]nc3ccccc23)c1C [SMR000068187] |  | 9.87 µM |
| c1ccc(-c2cn3nc(-c4ccccc4)sc3n2)cc1 [2,6-diphenylimidazo[2,1-b][1,3,4]thiadiazole] |  | 2.02 µM |
| CCCCS(=O)(=O)/C=C\C=C/S(=O)(=O)CCCC [SMR000020833] |  | 1.3 µM |
| CCCCn1c2c(c(=O)n(C)c1=O)C(c1ccc(OC)cc1)N1CCCCCC1=N2 (stereo unspecified) [1-butyl-5-(4-methoxyphenyl)-3-methyl-5,7,8,9,10,11-hexahydropyrimido[3,4]pyrimid[4,5-a]azepine-2,4-quinone] |  | 8.03 µM |
| CN1Cc2cc(C(=O)c3cc(Cl)cc(CSc4ncccn4)c3O)cnc2NC1=O [6-[5-chloranyl-2-oxidanyl-3-(pyrimidin-2-ylsulfanylmethyl)phenyl]carbonyl-3-methyl-1,4-dihydropyrido[2,3-d]pyrimidin-2-one] | 12.6 µM |  |
| CCc1ccc(-c2nc(CSCC(=O)NCCCN3CCCC3=O)c(C)o2)cc1 [2-({[2-(4-ethylphenyl)-5-methyl-1,3-oxazol-4-yl]methyl}thio)-N-[3-(2-oxopyrrolidin-1-yl)propyl]acetamide] |  | 4.32 µM |
| Cn1nc(C(C)(C)C)cc1C(=O)NCc1ccc(N2CCCC2=O)cc1 [5-tert-Butyl-2-methyl-2H-pyrazole-3-carboxylic acid 4-(2-oxo-pyrrolidin-1-yl)-benzylamide] |  | 9.05 µM |
| CCc1ccc2oc(-c3cc(N)ccc3O)nc2c1 [(6E)-4-amino-6-(5-ethyl-3H-1,3-benzoxazol-2-ylidene)-1-cyclohexa-2,4-dienone] |  | > 3.67 µM |
| O=C(NCCOc1ccccc1)c1ccc2c(c1)OCO2 [MLS000100028] |  | > 1.22 µM |
